Active and inactive are the calls of the source. The calls are words filed in the database; no cut-off is given here.
Columns and labels:
[1] = molecular target: Bile acid receptor (Homo sapiens) (UniProt Q96RI1); test: Agonist activity at FXR (unknown origin) transfected in african green monkey COS7 cells assessed transactivation incubated at 1 uM for 16 hrs by luciferase assay; format: cell-based
[2] = molecular target: Retinoic acid receptor beta (Homo sapiens) (UniProt P10826); test: Agonist activity at RARbeta (unknown origin) transfected in african green monkey COS7 cells assessed transactivation incubated at 1 uM for 16 hrs by luciferase assay; format: cell-based
Sequence of Retinoic acid receptor beta (Homo sapiens) (P10826 whole entry): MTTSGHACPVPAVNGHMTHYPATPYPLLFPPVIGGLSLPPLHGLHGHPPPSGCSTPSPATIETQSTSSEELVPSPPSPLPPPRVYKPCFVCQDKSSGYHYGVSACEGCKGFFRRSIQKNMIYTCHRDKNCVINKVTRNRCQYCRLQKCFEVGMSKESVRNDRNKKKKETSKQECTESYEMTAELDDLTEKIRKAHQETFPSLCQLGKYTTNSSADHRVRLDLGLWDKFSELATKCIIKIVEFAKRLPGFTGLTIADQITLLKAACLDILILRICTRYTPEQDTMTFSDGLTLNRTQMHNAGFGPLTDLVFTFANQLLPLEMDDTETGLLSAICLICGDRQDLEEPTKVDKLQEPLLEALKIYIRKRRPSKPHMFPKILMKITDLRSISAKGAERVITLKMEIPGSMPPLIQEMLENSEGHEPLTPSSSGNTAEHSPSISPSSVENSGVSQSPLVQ

[3] = molecular target: Retinoic acid receptor RXR-alpha (Homo sapiens) (UniProt P19793); test: Agonist activity at RXRalpha (unknown origin) transfected in african green monkey COS7 cells assessed transactivation incubated at 1 uM for 16 hrs by luciferase assay; format: cell-based
Sequence of Retinoic acid receptor RXR-alpha (Homo sapiens) (P19793 whole entry): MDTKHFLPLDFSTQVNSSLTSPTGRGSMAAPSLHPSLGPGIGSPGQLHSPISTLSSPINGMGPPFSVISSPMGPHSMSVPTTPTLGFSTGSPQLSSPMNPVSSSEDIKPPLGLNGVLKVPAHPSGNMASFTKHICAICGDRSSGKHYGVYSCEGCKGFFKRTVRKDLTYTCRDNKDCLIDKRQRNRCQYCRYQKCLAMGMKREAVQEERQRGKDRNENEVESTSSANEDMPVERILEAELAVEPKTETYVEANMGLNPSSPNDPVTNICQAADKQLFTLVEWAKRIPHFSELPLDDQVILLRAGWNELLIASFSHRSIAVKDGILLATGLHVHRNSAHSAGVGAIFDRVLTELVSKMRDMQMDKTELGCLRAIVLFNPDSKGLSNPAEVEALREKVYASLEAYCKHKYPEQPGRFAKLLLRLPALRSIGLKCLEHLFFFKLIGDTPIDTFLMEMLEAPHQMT

[4] = molecular target: Retinoic acid receptor RXR-gamma (Homo sapiens) (UniProt P48443); test: Agonist activity at RXRgamma (unknown origin) transfected in african green monkey COS7 cells assessed transactivation incubated at 1 uM for 16 hrs by luciferase assay; format: cell-based
Sequence of Retinoic acid receptor RXR-gamma (Homo sapiens) (P48443 whole entry): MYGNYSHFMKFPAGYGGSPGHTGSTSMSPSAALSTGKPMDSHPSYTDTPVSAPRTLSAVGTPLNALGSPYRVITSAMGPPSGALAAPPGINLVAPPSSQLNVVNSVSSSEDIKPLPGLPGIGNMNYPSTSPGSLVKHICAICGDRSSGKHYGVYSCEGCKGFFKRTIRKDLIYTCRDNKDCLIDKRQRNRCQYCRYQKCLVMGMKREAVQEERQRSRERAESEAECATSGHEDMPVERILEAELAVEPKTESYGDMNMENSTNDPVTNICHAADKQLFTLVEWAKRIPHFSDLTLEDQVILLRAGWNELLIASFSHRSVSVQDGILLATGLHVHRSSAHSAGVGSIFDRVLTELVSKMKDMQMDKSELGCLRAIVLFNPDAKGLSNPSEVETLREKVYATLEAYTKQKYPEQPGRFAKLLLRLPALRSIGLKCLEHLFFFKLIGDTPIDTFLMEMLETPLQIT

[5] = molecular target: Nuclear receptor ROR-gamma (Homo sapiens) (UniProt P51449); test: Agonist activity at RORgamma (unknown origin) transfected in african green monkey COS7 cells assessed transactivation incubated at 1 uM for 16 hrs by luciferase assay; format: cell-based
Sequence of Nuclear receptor ROR-gamma (Homo sapiens) (P51449 whole entry): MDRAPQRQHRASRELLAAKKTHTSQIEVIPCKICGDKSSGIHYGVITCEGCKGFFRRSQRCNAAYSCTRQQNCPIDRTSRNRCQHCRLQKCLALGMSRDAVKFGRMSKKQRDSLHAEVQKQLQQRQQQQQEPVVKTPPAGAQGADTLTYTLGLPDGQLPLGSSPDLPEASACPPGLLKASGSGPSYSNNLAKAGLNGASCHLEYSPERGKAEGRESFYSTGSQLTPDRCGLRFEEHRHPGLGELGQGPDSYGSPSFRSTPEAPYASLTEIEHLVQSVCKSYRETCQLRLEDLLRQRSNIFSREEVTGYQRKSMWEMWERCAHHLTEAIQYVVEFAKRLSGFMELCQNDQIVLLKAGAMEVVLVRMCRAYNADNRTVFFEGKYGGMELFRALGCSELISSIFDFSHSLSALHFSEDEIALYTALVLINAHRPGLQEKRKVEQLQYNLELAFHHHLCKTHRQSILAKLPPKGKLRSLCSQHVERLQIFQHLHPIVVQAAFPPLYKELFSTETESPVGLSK

[6] = Clearance in fasted Sprague-Dawley rat at 10 mg/kg, po measured at 0.083 to 24 hrs by LC-MS/MS analysis; format: ADME, organism-based; details: in vivo, time 0.083-24 hrs
[7] = Mutagenicity in Salmonella typhimurium TA98 measured at 0.21 to 16.67 mg/ml for 72 hrs by mini-Ames test; format: toxicity; details: salmonella enterica subsp. enterica serovar typhimurium, dose 0.21-16.67 mg/ml
[8] = tested on: COS-7; test: Cytotoxicity against african green monkey COS7 cells incubated upto 100 uM for 24 hrs by CCK8 assay; format: toxicity, cell-based; details: chlorocebus aethiops, cos-7, 24 h
[9] = tested on: HEK293; test: Cytotoxicity against HEK293 cells incubated upto 100 uM for 24 hrs by CCK8 assay; format: toxicity, cell-based; details: human, hek293, 24 h
[10] = tested on: HepG2; test: Cytotoxicity against human HepG2 cells incubated upto 100 uM for 24 hrs by CCK8 assay; format: toxicity, cell-based; details: hepg2, 24 h
[11] = Mutagenicity in Salmonella typhimurium TA100 measured at 0.21 to 16.67 mg/ml for 72 hrs by mini-Ames test; format: toxicity; details: salmonella enterica subsp. enterica serovar typhimurium, dose 0.21-16.67 mg/ml
[12] = Acute toxicity in mouse assessed as moribundity administered at 2000 mg/kg, po for 14 days; format: organism-based; details: in vivo, 336 h, time 14 day
[13] = Down-streaming of Oatp1 gene expression in C57BL/6JNifdc mouse liver assessed as hepatic resorption of bile acid administered at 0.03 to 0.1 mg/kg, po for 3 days measured after 6 hrs of last administration by real-time PCR analysis; format: ADME, organism-based; details: in vivo, 78 h, dose 0.03-0.1 mg/kg, time 3.25 day
[14] = Upregulation of Mrp3 gene expression in C57BL/6JNifdc mouse liver assessed as increased efflux of bile acid administered at 0.03 to 0.1 mg/kg, po for 3 days measured after 6 hrs of last administration by real-time PCR analysis; format: ADME, organism-based; details: in vivo, 78 h, dose 0.03-0.1 mg/kg, time 3.25 day
[15] = Anti-cholestatic activity in ANIT-induced C57BL/6Nifdc mouse model assessed as decrease in serum alanine aminotransferase at 0.03 to 0.1 mg/kg, po upto 42 hrs measured after 48 hrs; format: ADME, organism-based; details: in vivo, 90 h, dose 0.03-0.1 mg/kg
[16] = Anti-cholestatic activity in ANIT-induced C57BL/6Nifdc mouse model assessed as decrease in serum total bilirubin level at 0.03 to 0.1 mg/kg, po upto 42 hrs measured after 48 hrs; format: ADME, organism-based; details: in vivo, 90 h, dose 0.03-0.1 mg/kg
[17] = Anti-cholestatic activity in ANIT-induced C57BL/6Nifdc mouse model assessed as decrease in liver TCA at 0.03 to 0.1 mg/kg, po upto 42 hrs measured after 48 hrs; format: ADME, organism-based; details: in vivo, 90 h, dose 0.03-0.1 mg/kg
[18] = Anti-cholestatic activity in ANIT-induced C57BL/6Nifdc mouse model assessed as decrease in liver CA at 0.03 to 0.1 mg/kg, po upto 42 hrs measured after 48 hrs; format: ADME, organism-based; details: in vivo, 90 h, dose 0.03-0.1 mg/kg
[19] = Anti-cholestatic activity in ANIT-induced C57BL/6Nifdc mouse model assessed as decrease in liver beta-MCA at 0.03 to 0.1 mg/kg, po upto 42 hrs measured after 48 hrs; format: ADME, organism-based; details: in vivo, 90 h, dose 0.03-0.1 mg/kg
[20] = Anti-cholestatic activity in ANIT-induced C57BL/6Nifdc mouse model assessed as downregulation of proinflammatory Il1b gene at 0.03 to 0.1 mg/kg, po upto 42 hrs measured after 48 hrs; format: ADME, organism-based; details: in vivo, 90 h, dose 0.03-0.1 mg/kg
[21] = Anti-cholestatic activity in ANIT-induced C57BL/6Nifdc mouse model assessed as downregulation of proinflammatory Il6 gene at 0.03 to 0.1 mg/kg, po upto 42 hrs measured after 48 hrs; format: ADME, organism-based; details: in vivo, 90 h, dose 0.03-0.1 mg/kg
[22] = Anti-cholestatic activity in ANIT-induced C57BL/6Nifdc mouse model assessed as decrease in total p65 level at 0.03 to 0.1 mg/kg, po upto 42 hrs measured after 48 hrs by Western blot analysis; format: ADME, organism-based; details: in vivo, 90 h, dose 0.03-0.1 mg/kg
[23] = Anti-cholestatic activity in ANIT-induced C57BL/6Nifdc mouse model assessed as decrease in liver 12-OCDCA at 0.03 to 0.1 mg/kg, po upto 42 hrs measured after 48 hrs; format: ADME, organism-based; details: in vivo, 90 h, dose 0.03-0.1 mg/kg
[24] = Anti-cholestatic activity in ANIT-induced C57BL/6Nifdc mouse model assessed as decrease in liver UCA at 0.03 to 0.1 mg/kg, po upto 42 hrs measured after 48 hrs; format: ADME, organism-based; details: in vivo, 90 h, dose 0.03-0.1 mg/kg
[25] = Anti-cholestatic activity in ANIT-induced C57BL/6Nifdc mouse model assessed as decrease in liver DHCA at 0.03 to 0.1 mg/kg, po upto 42 hrs measured after 48 hrs; format: ADME, organism-based; details: in vivo, 90 h, dose 0.03-0.1 mg/kg
[26] = Anti-cholestatic activity in ANIT-induced C57BL/6Nifdc mouse model assessed as decrease in liver 3-H-7, 12-Dkca at 0.03 to 0.1 mg/kg, po upto 42 hrs measured after 48 hrs; format: ADME, organism-based; details: in vivo, 90 h, dose 0.03-0.1 mg/kg
[27] = Anti-cholestatic activity in ANIT-induced C57BL/6Nifdc mouse model assessed as decrease in liver TUDCA at 0.03 to 0.1 mg/kg, po upto 42 hrs measured after 48 hrs; format: ADME, organism-based; details: in vivo, 90 h, dose 0.03-0.1 mg/kg
[28] = Anti-cholestatic activity in ANIT-induced C57BL/6Nifdc mouse model assessed as decrease in liver GHCA at 0.03 to 0.1 mg/kg, po upto 42 hrs measured after 48 hrs; format: ADME, organism-based; details: in vivo, 90 h, dose 0.03-0.1 mg/kg
[29] = Anti-cholestatic activity in ANIT-induced C57BL/6Nifdc mouse model assessed as decrease in liver T-MCA at 0.03 to 0.1 mg/kg, po upto 42 hrs measured after 48 hrs; format: ADME, organism-based; details: in vivo, 90 h, dose 0.03-0.1 mg/kg
[30] = Anti-fibrosis activity in Ccl4-induced C57BL/6Nifdc mouse model assessed as decrease in hydroxyproline in liver administered orally for 3 weeks; format: ADME; details: in vivo, po, 504 h, dose 0.03-0.1 mg/kg
[31] = In vivo upregulation of PPAR delta in C57BL/6JNifdc mouse liver administered at 0.03 mg/kg, po for 3 days measured after 6 hrs of last administration by real-time PCR analysis; format: ADME, organism-based; details: 78 h
[32] = Down-streaming of Cyp27a1 gene expression in C57BL/6JNifdc mouse liver assessed as hepatic resorption of bile acid administered at 0.03 mg/kg, po for 3 days measured after 6 hrs of last administration by real-time PCR analysis; format: ADME, organism-based; details: in vivo, 78 h

Sequence of Bile acid receptor (Homo sapiens) (Q96RI1 whole entry): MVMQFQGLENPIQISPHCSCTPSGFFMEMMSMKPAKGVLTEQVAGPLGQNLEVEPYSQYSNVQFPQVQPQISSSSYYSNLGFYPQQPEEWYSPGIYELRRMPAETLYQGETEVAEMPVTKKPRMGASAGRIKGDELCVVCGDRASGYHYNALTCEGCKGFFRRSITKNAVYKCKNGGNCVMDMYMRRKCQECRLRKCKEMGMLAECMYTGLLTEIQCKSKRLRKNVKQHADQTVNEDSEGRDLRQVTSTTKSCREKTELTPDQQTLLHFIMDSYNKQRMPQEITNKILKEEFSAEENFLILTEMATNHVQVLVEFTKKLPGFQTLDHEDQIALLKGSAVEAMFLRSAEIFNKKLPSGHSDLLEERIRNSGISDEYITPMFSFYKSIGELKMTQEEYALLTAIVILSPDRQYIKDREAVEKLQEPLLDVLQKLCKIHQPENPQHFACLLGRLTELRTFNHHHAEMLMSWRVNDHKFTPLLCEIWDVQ

**Q.** For `Cc1cc(CN2C(=O)CN(c3ccc(C(F)(F)F)cc3)C2=O)cc(C)c1OC(C)(C)C(=O)O`, which Activity [1] is on record?
**A.** inactive

**Q.** What about the Activity [2] of the same compound?
**A.** inactive

**Q.** What about the Activity [3] of the same compound?
**A.** inactive

**Q.** And the Activity [4]?
**A.** inactive

**Q.** What about the Activity [5] of the same compound?
**A.** inactive

**Q.** What about the CL [6] of the same compound?
**A.** 7.6 mL/min/kg

**Q.** And the Activity [7]?
**A.** Non-Toxic

**Q.** What about the Activity [8] of the same compound?
**A.** Non-Toxic

**Q.** And the Activity [9]?
**A.** Non-Toxic

**Q.** And the Activity [10]?
**A.** Non-Toxic

**Q.** And the Activity [11]?
**A.** Non-Toxic

**Q.** And the Activity [12]?
**A.** Non-Toxic

**Q.** And the Activity [13]?
**A.** Active

**Q.** And the Activity [14]?
**A.** Active

**Q.** What about the Activity [15] of the same compound?
**A.** Active

**Q.** And the Activity [16]?
**A.** Active

**Q.** And the Activity [17]?
**A.** Active

**Q.** And the Activity [18]?
**A.** Active

**Q.** And the Activity [19]?
**A.** Active

**Q.** What about the Activity [20] of the same compound?
**A.** Active

**Q.** What about the Activity [21] of the same compound?
**A.** Active

**Q.** And the Activity [22]?
**A.** Active

**Q.** What about the Activity [23] of the same compound?
**A.** Active

**Q.** And the Activity [24]?
**A.** Active

**Q.** And the Activity [25]?
**A.** Active

**Q.** And the Activity [26]?
**A.** Active

**Q.** And the Activity [27]?
**A.** Active

**Q.** What about the Activity [28] of the same compound?
**A.** Active

**Q.** What about the Activity [29] of the same compound?
**A.** Active

**Q.** What about the Activity [30] of the same compound?
**A.** Dose-Dependent Effect

**Q.** What about the Activity [31] of the same compound?
**A.** Active

**Q.** And the Activity [32]?
**A.** Active

Source: ChEMBL document CHEMBL5338805, “Discovery of the First Subnanomolar PPARα/δ Dual Agonist for the Treatment of Cholestatic Liver Diseases” (J Med Chem, 2023)
